How the values were obtained:
Assay in all cases: inside-out patch clamp, Cl- current stimulation
[1] = molecular target: T1, ANO1 (TMEM16A; mTMEM16A) (Mus musculus, UniProt Q8BHY3); assay type: cell-based
T1 sequence (Q8BHY3 1-960): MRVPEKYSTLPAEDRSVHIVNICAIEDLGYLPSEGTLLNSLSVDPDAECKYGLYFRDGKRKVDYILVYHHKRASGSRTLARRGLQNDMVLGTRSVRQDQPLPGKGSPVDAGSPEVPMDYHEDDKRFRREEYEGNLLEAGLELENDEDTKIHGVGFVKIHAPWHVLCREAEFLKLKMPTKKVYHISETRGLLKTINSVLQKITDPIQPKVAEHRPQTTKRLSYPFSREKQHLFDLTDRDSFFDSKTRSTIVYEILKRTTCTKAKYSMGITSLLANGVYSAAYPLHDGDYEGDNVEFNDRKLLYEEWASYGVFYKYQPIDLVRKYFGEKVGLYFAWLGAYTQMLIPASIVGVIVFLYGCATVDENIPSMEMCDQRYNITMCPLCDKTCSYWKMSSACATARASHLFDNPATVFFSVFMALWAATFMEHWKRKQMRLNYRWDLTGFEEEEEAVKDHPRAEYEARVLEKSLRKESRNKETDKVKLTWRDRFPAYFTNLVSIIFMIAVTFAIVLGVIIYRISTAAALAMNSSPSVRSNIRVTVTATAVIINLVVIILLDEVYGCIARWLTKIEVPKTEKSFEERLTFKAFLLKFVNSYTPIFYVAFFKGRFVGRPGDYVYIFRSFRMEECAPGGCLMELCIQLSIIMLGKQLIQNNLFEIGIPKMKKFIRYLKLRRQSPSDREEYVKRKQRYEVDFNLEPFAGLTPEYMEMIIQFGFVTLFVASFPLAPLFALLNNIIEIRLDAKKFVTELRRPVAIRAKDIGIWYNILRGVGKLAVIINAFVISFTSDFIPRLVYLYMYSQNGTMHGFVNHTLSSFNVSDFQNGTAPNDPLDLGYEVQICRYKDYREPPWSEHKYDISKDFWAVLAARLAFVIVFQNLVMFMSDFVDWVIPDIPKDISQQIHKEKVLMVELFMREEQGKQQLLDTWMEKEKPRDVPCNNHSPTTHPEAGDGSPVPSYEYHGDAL

[2] = molecular target: T1, ANO1 (TMEM16A; mTMEM16A); assay type: biochemical; settings: +100 mV, 270 nM Ca2+; wild-type reference of the mutant set
[3] = molecular target: T1, ANO1 (TMEM16A; mTMEM16A); assay type: biochemical; settings: +100 mV, 270 nM Ca2+

Row | EC50 [1] [µM] | ΔIPIP2 (% current increase) at 10 μM [2] [%] | % current increase at 10 μM [3] [%] | Structure (SMILES)
1 | 1.24 | 89.9 ± 16.8 | – | CCCCCCCC(=O)OC[C@H](COP(=O)(O)O[C@@H]1[C@H](O)[C@H](O)[C@@H](OP(=O)(O)O)[C@H](OP(=O)(O)O)[C@H]1O)OC(=O)CCCCCCC [diC8-PI(4,5)P2]
2 | – | – | 31 ± 12 | CCCCCCCC(=O)OC[C@H](COP(=O)(O)O[C@H]1[C@H](O)[C@@H](OP(=O)(O)O)[C@H](OP(=O)(O)O)[C@@H](OP(=O)(O)O)[C@H]1O)OC(=O)CCCCCCC [diC8-PI(3,4,5)P3]

Source: publication doi:10.1101/625897v2 (biorxiv, 2019)
